Assay [1] concerns 129S6/SvEv mice. Briefly: Forced swim test (FST). In kind it is in vivo. The following applies: female mice. Here is the method: Female 129S6/SvEv mice were administered an intracerebroventricular infusion of artificial cerebrospinal fluid, PACAP (6-38) (VPAC2 antagonist), or Bay 55-9837. Five minutes after, mice were given an IP injection of saline or (R,S)-ketamine (10 mg/kg). One week later, mice were administered 3-shock CFC training. Five days subsequently, mice were tested in CFC re-exposure and the FST. […] Upon CFC re-exposure, there was a significant group x drug interaction. […] In the PACAP (6-38) group, the prophylactic effect of (R,S)-ketamine was blocked. […]

In assay [2] the test system is 129S6/SvEv mice. The assay can be described thus: Contextual fear conditioning (CFC) freezing. The following applies: for Freezing upon CFC re-exposure, (R,S)-ketamine versus saline: female mice, IP 10 mg/kg one week before CFC. In kind it is in vivo. The procedure: Saline, (R,S)-ketamine (10 mg/kg), or Bay 55-9837 (2.5 or 5 mg/kg) was administered 1 week prior to 3-shock contextual fear conditioning (CFC) stress in female 129S6/SvEv mice. Five days later, mice were assayed for fear, behavioral despair, locomotion, exploratory behavior, and hyponcophagia.
Male 129S6/SvEv mice were administered the same behavioral paradigm as described in Example 1. […] There was no effect of drug on immobility time during FST Day 1.
Female 129S6/SvEv mice were given a single injection of saline, (R,S)-ketamine (10 mg/kg), or Bay 55-9837 (2.5 mg/kg) 5 minutes after 3-shock CFC training.
Male 129S6/SvEv mice were administered the same behavioral paradigm as in Example 3. […] Similarly, in the NSF, Bay 55-9837, but not (R,S)-ketamine suppressed latency to feed in the OF when compared with saline controls.
Female 129S6/SEv mice were administered a single injection of saline of Bay 55-9837 (2.5 mg/kg) and placed in Piezo sleep boxes. One week later, mice were administered 3-shock CFC training or context exposure and again placed back into Piezo sleep boxes. Five days later, mice were re-exposed to the training context. […] During CFC training, there was no effect of drug. […] There was a significant effect of drug and stress as well as a drug x stress interaction.
Female 129S6/SvEv mice were administered an intracerebroventricular infusion of artificial cerebrospinal fluid, PACAP (6-38) (VPAC2 antagonist), or Bay 55-9837. Five minutes after, mice were given an IP injection of saline or (R,S)-ketamine (10 mg/kg). One week later, mice were administered 3-shock CFC training. Five days subsequently, mice were tested in CFC re-exposure and the FST. […] Upon CFC re-exposure, there was a significant group x drug interaction. […] In the PACAP (6-38) group, the prophylactic effect of (R,S)-ketamine was blocked.

Turning to PACAP (6-38), in the assay with 129S6/SvEv mice [1] (ICV PACAP (6-38) then IP (R,S)-ketamine 10 mg/kg), the “Prophylactic effect of (R,S)-ketamine on FST Day 2” value is “blocked”.
For the compound `CNC1(c2ccccc2Cl)CCCCC1=O` (racemic) [(R,S)-ketamine], the “Freezing upon CFC re-exposure, (R,S)-ketamine versus saline” value in the assay on 129S6/SvEv mice [2] (PACAP(6-38) ICV group) and with 129S6/SvEv mice [2] (Vehicle ICV group) was “not significantly different” each time. Also, in the assay on 129S6/SvEv mice [2] (male mice, same paradigm as Example 3), the “Freezing during CFC re-exposure” value is recorded as “did not significantly alter”. Further, the “Freezing during CFC training” value in the assay on 129S6/SvEv mice [2] (male mice, same paradigm as Example 3 (single injection 5 minutes after 3-shock CFC training)) is listed as “did not significantly alter”. Also, in the assay with 129S6/SvEv mice [1] (1 week prior to 3-shock CFC stress, 10 mg/kg), the “Behavioral despair on FST Day 2” value is on record as “reduced”. Moreover, the “Immobility time on Day 2 of the FST” value in the assay with 129S6/SvEv mice [1] (5 minutes after 3-shock CFC training, 10 mg/kg) is “significantly reduced”. In addition, the “Immobility on FST Day 2 compared with Vehicle/saline” value with 129S6/SvEv mice [1] (ICV Vehicle then IP (R,S)-ketamine 10 mg/kg) was “significantly lower”.

The values are drawn from US20240238379A1, “Compositions and Methods for the Prevention and Treatment of Stress-Induced Fear, Depressive-Like and Anxiety-Like Behavior” (The Trustees of Columbia University in the City of New York, priority 2021, published 2024).
